# According to patent US20050279350A1, “Methods and apparatus for relieving headaches, rhinitis and other common ailments” (priority 1999, published 2005):
# Values joined by “and” are separate entries in the source; they are usually repeats but may differ in a detail not shown here. Identical values can stand only once. Like-named read-outs stand apart in the source and are kept apart here. Marks after values point to notes of the source that are not given here.
# Tested on: human subjects with migraine and tension-type headaches, jaw pain
# Type: in vivo
# Settings: for Est. Rate / Est. Total Dose / Number of Doses / Single Dose Duration / Total Dose / Total Treatment Time: self-selected effective dose; for 24-hr. Recur Rate / After Effects / Symptom Free, Minutes Post-Treatment / Symptom, Relief, Minutes Post-Treatment: moderate; for range of average dose duration / range of volume of gas: across severities
# Text: The test device was a hand-held, multi-dose, disposable, dispenser that was approximately 3 to 4 inches long and 6/8 to ⅞ inches in diameter constructed as described above. The device consisted of a plastic twist-top flow regulator mounted on top of a pressurized steel cartridge containing liquid carbon dioxide. The tip of the flow regulator has a nosepiece that is the optimal size and configuration to place against and seal off a nostril for administration of the gas. In a number of subjects, the effective nasal and oral carbon dioxide flow rates, and maximum tolerable nasal and oral flow rates, were measured using a laboratory apparatus. This apparatus consisted of a flow regulator connected via tubing to a flow meter and a large tank of carbon dioxide. These flow data were used, together with the number of seconds gas was administered during therapy, to calculate the estimated dose of gas in milliliters.
# Of the total of 15 subjects included in the analysis, 11 used the treatment for 35 headaches and 9 subjects used it for 9 allergy attacks. […] subjects treated both headache and allergy but on different days. The subjects included adults, elderly, and children of both sexes in good general health, having mild, moderate, and severe headaches or having allergies to plant, animal, or airborne allergens. The device was used to treat migraine and tension-type headaches, jaw pain, and allergies (allergic rhinitis, with symptoms that included sinus congestion, sneezing, and itchy throat and eyes). There was no limitation on the duration of symptoms before treatment with the device. Subjects with no prior use of the device and those who have used it (to treat allergy symptoms) previously were included.
# Carbon dioxide (100%) was administered nasally by the subject for a few seconds via a nostril to fill the nasal passages while holding their breath, or taking breaths of room air occasionally if the dose was lengthy. The gas exited the other nostril. Such nasal administration is similar to presently marketed nasal inhalers except that the administered gas was not inhaled. […] Subjects took as many doses as they needed for relief. It is important to note that there were no number of doses, duration of dose, time between doses, or gas flow rate specified for the user. Subjects chose their own regimen for symptom relief. Similarly, in medical practice today, gas therapy is a “titrate to effect” therapy without a specified dosage.
# The International Headache Society (IHS) divides headache intensity into three categories: mild, moderate, and severe. The rating of the intensity level depends on the extent to which the headache interferes with the ability to function. […] The IHS uses headache relief at two hours as its primary outcome measure for present-day headache drug studies. Since therapy of the present invention acts much faster than present-day drugs, the primary outcome measure selected for this analysis was headache relief at 30 minutes. Each of the headache outcome measures used for this analysis is as follows: • Headache relief efficacy at 1, 5, 15, and 30 minutes post-treatment—headache relief efficacy is obtained when a pre-treatment headache severity of mild, moderate, or severe severity is improved to a post-treatment severity of none, mild, or moderate respectively. • Headache free efficacy at 1, 5, 15, and 30 minutes post-treatment—headache free efficacy is obtained when a pre-treatment headache of mild, moderate, or severe severity is improved to a post-treatment severity of none. • Headache recurrence within 24 hours post-treatment—recurrence within 24 hours is defined as no or mild headache severity after treatment that then worsened to moderate or severe headache severity within 24 hours after treatment with no use of rescue medication before the worsening. • Safety parameter—safety is defined as no adverse after-effects of treatment.
# [1] = Headache-All, mild, severe, 1 min post-treatment
# [2] = Headache-All, mild, severe, 5 min post-treatment
# [3] = Headache-All, mild, severe, 15 min post-treatment
# [4] = Headache-All, mild, severe, 30 min post-treatment
# [5] = Headache-All, severe - IHS criteria
# [6] = Headache-All, severe - IHS criteria, 1 min post-treatment
# [7] = Headache-All, severe - IHS criteria, 5 min post-treatment
# [8] = Headache-All, severe - IHS criteria, 15 min post-treatment
# [9] = Headache-All, severe - IHS criteria, 30 min post-treatment
# [10] = Migraine, mild, severe, 1 min post-treatment
# [11] = Migraine, mild, severe, 5 min post-treatment
# [12] = Migraine, mild, severe, 15 min post-treatment
# [13] = Migraine, mild, severe, 30 min post-treatment
# [14] = Migraine, severe - IHS criteria
# [15] = Migraine, severe - IHS criteria, 1 min post-treatment
# [16] = Migraine, severe - IHS criteria, 5 min post-treatment
# [17] = Migraine, severe - IHS criteria, 15 min post-treatment
# [18] = Migraine, severe - IHS criteria, 30 min post-treatment
# [19] = Tension, mild, severe, 1 min post-treatment
# [20] = Tension, mild, severe, 5 min post-treatment
# [21] = Tension, mild, severe, 15 min post-treatment
# [22] = Tension, mild, severe, 30 min post-treatment
# [23] = Tension, severe - IHS criteria, 1 min post-treatment
# [24] = Tension, severe - IHS criteria, 5 min post-treatment
# [25] = Tension, severe - IHS criteria, 15 min post-treatment
# [26] = Tension, severe - IHS criteria, 30 min post-treatment
structure (smiles),measurement,setting,value
O=C=O [carbon dioxide],headache recurrence 24 hours post-treatment,35 headaches,no instances of headache recurrence
same,Est. Rate,Headache-All,4 mL/s
same,Est. Total Dose,Headache-All,124 mL
same,Number of Doses,Headache-All,2 #
same,Single Dose Duration,Headache-All,15 s
same,Total Dose,Headache-All,32 s
same,Total Treatment Time,Headache-All,7 min
same,24-hr. Recur Rate,"Headache-All, mild, severe",0%
same,After Effects,"Headache-All, mild, severe",0%
same,"Symptom Free, Minutes Post-Treatment",[1],31%
same,"Symptom, Relief, Minutes Post-Treatment",[1],31%
same,"Symptom Free, Minutes Post-Treatment",[2],60%
same,"Symptom, Relief, Minutes Post-Treatment",[2],63%
same,"Symptom Free, Minutes Post-Treatment",[3],74%
same,"Symptom, Relief, Minutes Post-Treatment",[3],86%
same,"Symptom Free, Minutes Post-Treatment",[4],80%
same,"Symptom, Relief, Minutes Post-Treatment",[4],94%
same,24-hr. Recur Rate,[5],0%
same,After Effects,[5],0%
same,"Symptom Free, Minutes Post-Treatment",[6],16%
same,"Symptom, Relief, Minutes Post-Treatment",[6],16%
same,"Symptom Free, Minutes Post-Treatment",[7],52%
same,"Symptom, Relief, Minutes Post-Treatment",[7],52%
same,"Symptom Free, Minutes Post-Treatment",[8],72%
same,"Symptom, Relief, Minutes Post-Treatment",[8],72%
same,"Symptom Free, Minutes Post-Treatment",[9],80%
same,"Symptom, Relief, Minutes Post-Treatment",[9],84%
same,Est. Rate,Migraine-All,3 mL/s
same,Est. Total Dose,Migraine-All,158 mL
same,Number of Doses,Migraine-All,2 #
same,Single Dose Duration,Migraine-All,29 s
same,Total Dose,Migraine-All,57 s
same,Total Treatment Time,Migraine-All,15 min
same,Est. Rate,Migraine-Mild,3 mL/s
same,Est. Total Dose,Migraine-Mild,82 mL
same,Number of Doses,Migraine-Mild,1 #
same,Single Dose Duration,Migraine-Mild,23 s
same,Total Dose,Migraine-Mild,30 s
same,Total Treatment Time,Migraine-Mild,1 min
same,Est. Rate,Migraine-Severe,3 mL/s
same,Est. Total Dose,Migraine-Severe,233 mL
same,Number of Doses,Migraine-Severe,2 #
same,Single Dose Duration,Migraine-Severe,35 s
same,Total Dose,Migraine-Severe,83 s
same,Total Treatment Time,Migraine-Severe,28 min
same,24-hr. Recur Rate,"Migraine, mild, severe",0%
same,After Effects,"Migraine, mild, severe",0%
same,"Symptom Free, Minutes Post-Treatment",[10],60%
same,"Symptom, Relief, Minutes Post-Treatment",[10],60%
same,"Symptom Free, Minutes Post-Treatment",[11],60%
same,"Symptom, Relief, Minutes Post-Treatment",[11],60%
same,"Symptom Free, Minutes Post-Treatment",[12],60%
same,"Symptom, Relief, Minutes Post-Treatment",[12],60%
same,"Symptom Free, Minutes Post-Treatment",[13],90%
same,"Symptom, Relief, Minutes Post-Treatment",[13],90%
same,24-hr. Recur Rate,[14],0%
same,After Effects,[14],0%
same,"Symptom Free, Minutes Post-Treatment",[15],25%
same,"Symptom, Relief, Minutes Post-Treatment",[15],25%
same,"Symptom Free, Minutes Post-Treatment",[16],25%
same,"Symptom, Relief, Minutes Post-Treatment",[16],25%
same,"Symptom Free, Minutes Post-Treatment",[17],25%
same,"Symptom, Relief, Minutes Post-Treatment",[17],25%
same,"Symptom Free, Minutes Post-Treatment",[18],75%
same,"Symptom, Relief, Minutes Post-Treatment",[18],100%
same,Est. Rate,Tension-All,4 mL/s
same,Est. Total Dose,Tension-All,122 mL
same,Number of Doses,Tension-All,3 #
same,Single Dose Duration,Tension-All,8 s
same,Total Dose,Tension-All,24 s
same,Total Treatment Time,Tension-All,6 min
same,Est. Rate,Tension-Mild,3 mL/s
same,Est. Total Dose,Tension-Mild,28 mL
same,Number of Doses,Tension-Mild,2 #
same,Single Dose Duration,Tension-Mild,3 s
same,Total Dose,Tension-Mild,6 s
same,Total Treatment Time,Tension-Mild,2 min
same,Est. Rate,Tension-Moderate,4 mL/s
same,Est. Total Dose,Tension-Moderate,50 mL
same,Number of Doses,Tension-Moderate,2 #
same,Single Dose Duration,Tension-Moderate,6 s
same,Total Dose,Tension-Moderate,11 s
same,Total Treatment Time,Tension-Moderate,4 min
same,Est. Rate,Tension-Severe,5 mL/s
same,Est. Total Dose,Tension-Severe,288 mL
same,Number of Doses,Tension-Severe,4 #
same,Single Dose Duration,Tension-Severe,15 s
same,Total Dose,Tension-Severe,56 s
same,Total Treatment Time,Tension-Severe,11 min
same,24-hr. Recur Rate,"Tension, mild, severe",0%
same,After Effects,"Tension, mild, severe",0%
same,"Symptom Free, Minutes Post-Treatment",[19],20%
same,"Symptom, Relief, Minutes Post-Treatment",[19],20%
same,"Symptom Free, Minutes Post-Treatment",[20],64%
same,"Symptom, Relief, Minutes Post-Treatment",[20],64%
same,"Symptom Free, Minutes Post-Treatment",[21],80%
same,"Symptom, Relief, Minutes Post-Treatment",[21],96%
same,"Symptom Free, Minutes Post-Treatment",[22],80%
same,"Symptom, Relief, Minutes Post-Treatment",[22],96%
same,24-hr. Recur Rate,"Tension, severe - IHS criteria",0%
same,After Effects,"Tension, severe - IHS criteria",0%
same,"Symptom Free, Minutes Post-Treatment",[23],14%
same,"Symptom, Relief, Minutes Post-Treatment",[23],14%
same,"Symptom Free, Minutes Post-Treatment",[24],55%
same,"Symptom, Relief, Minutes Post-Treatment",[24],55%
same,"Symptom Free, Minutes Post-Treatment",[25],77%
same,"Symptom, Relief, Minutes Post-Treatment",[25],77%
same,"Symptom Free, Minutes Post-Treatment",[26],80% and 77%
same,"Symptom, Relief, Minutes Post-Treatment",[26],77%
same,headache outcome in an individual subject,"all subsequent mild and severe migraines, two to three doses for 25 sec each=120 ml",completely eliminate
same,dose dependence of the treatment,analysis of the headache and allergy therapy data (Table IV),dose dependent
same,headache outcome in an individual subject,"at onset of a migraine, doses twice for 20 to 25 seconds",completely aborts the migraine and it does not recur
same,adverse after effects of treatment,headache subjects,no subjects reported any adverse after effects
same,onset of symptom relief,"headache, while administering the first dose",immediate onset of symptom relief within seconds
same,efficacy,"migraine and tension-type headache, occurring in seconds to minutes",80-94%
same,range of average dose duration,migraine headaches,30 to 83 s
same,range of volume of gas,migraine headaches,82 to 233 mL
same,headache outcome in an individual subject,"mild migraine, first use of device, one dose for 30 sec=60 ml",unable to improve
same,headache outcome in an individual subject,"moderate tension headache, one dose of 1 sec=2 ml",no success
same,headache outcome in an individual subject,"severe jaw/tooth ache, three doses of 45 sec each=675 ml",completely eliminate
same,headache outcome in an individual subject,"severe tension headache, three doses of 15 sec each=225 ml",completely eliminate
same,headache outcome in an individual subject,"severe tension headaches, three occasions, six doses of 8 sec each=240 ml",only moderate success
same,range of average dose duration,tension-type headaches,6 to 56 s
same,range of volume of gas,tension-type headaches,28 to 288 mL
